Test results as given in US20170158702A1, “MULTIVALENT RAS BINDING COMPOUNDS” (KYRAS THERAPEUTICS, INC., priority 2015, published 2017).
pEC50: −log10 of the molar value. Where a name gives a salt, the structure may show the parent alone.

Tests used:
Type in all cases: cell-based
[1] = test system: HT-29; assay: Viability assay with HT-29; conditions: HT-29, viability assay per Example 57
Description: (§1) NCI-H460 (Epithelial lung tissue; carcinoma; large cell lung cancer) were cultured in RPMI Medium 1640 (Invitrogen-22400105) supplemented with 10% fetal bovine serum (FBS; Invitrogen-10099141). All the cell lines were maintained in a humidified incubator at 37° C. with 5% CO2. Cell culture media and supplements were purchased from Invitrogen, and tissue culture flasks were purchased from Corning, 96-well plates were purchased from Greiner. CellTiter-Glo Luminescent Cell Viability Assay kits were purchased from Promega (Promega-G7573), cells counter Vi-Cell was purchased from Beckman, D300e digital dispenser was purchased from Tecan, detection instrument Envision was purchased from PerkinElmer.
(§2) Paclitaxel was purchased from SELLECK, test compounds, such as any one of the compounds disclosed herein, attained solubility in DMSO and when diluted into culture media. DMSO, solutions containing the test compounds, and culture media were warmed to 37° C. or room temperature for the solution preparation and dilutions.
(§3) NCI-H460 Cell line were seeded in 96-well plates (1200/well) and allowed to adhere to overnight (100 uL/well), for drug treatments with 2 fold dilution, 9 dose points, triplicates or vehicle control, compound stock solutions were prepared in DMSO and use D300e digital dispenser to add compounds to the wells to give the indicated final drug concentrations. Final DMSO concentration was 0.5%. Cellular ATP concentrations were assessed by using the CellTiter-Glo Cell Viability Assay as per the manufacturer's instructions 72 h after compounds addition. Additional cells lines were assayed with any one of the compounds disclosed herein according to the procedures described for the viability assay with NCI-H460.
A viability assay with HT-29 (Colorectal adenocarcinoma) was performed with compounds listed in Table 18 according to the procedures described in Example 57.

[2] = test system: NCI-H460; assay: Viability assay with NCI-H460 (CellTiter-Glo cytotoxicity assay, 72 h); conditions: NCI-H460 cell line, 72 h after compounds addition
Description: as §1, §2, §3

[3] = test system: MIA PaCa-2; assay: Viability assay with MIA PaCa-2; conditions: MIA PaCa-2, viability assay per Example 57
Description: as §1, §2, §3
A viability assay with MIA PaCa-2 (Epithelial pancreas tissue; carcinoma) was performed with compounds listed in Table 15, according to the procedures described in Example 57.

Structure (SMILES)	pEC50 [1]	pEC50 [3]	pEC50 [2]
NCCCn1cc(-c2cccc(C(N)=O)c2)c2cc(CN3CCN(Cc4ccccc4Cl)CC3)ccc21 [C179; HCl]	≥ 5.30	≥ 5.30	≥ 5.30
NCCCn1cc(-c2ccc(OC(F)(F)F)cc2CN)c2cc(CN3CCCCC3)ccc21 [C260; HCl]	5.00 to 5.30	≥ 5.30	5.00 to 5.30
CN(CCN(C)C(=O)c1ccc2c(c1)c(-c1ccc(OC(F)(F)F)cc1)cn2CCCN)Cc1ccccc1Cl [C193; HCl]	≥ 5.30	≥ 5.30	≥ 5.30
NCCCn1cc(-c2ccc(OC(F)(F)F)cc2)c2cc(Nc3ccc(Nc4ccccc4Cl)nc3)ccc21 [C246; Formic Acid]	4.52 to 5.00	5.00 to 5.30	5.00 to 5.30
NCCCn1cc(-c2ccc(OC(F)(F)F)cc2)c2cc(CN3CCN(Cc4ccc(C(F)(F)F)cc4)CC3)ccc21 [C136; HCl]	≥ 5.30	≥ 5.30	≥ 5.30
CCC1CCN(Cc2ccc3c(c2)c(-c2ccc(OC(F)(F)F)cc2)cn3CCCN)CC1 [C226; HCl]	≥ 5.30	≥ 5.30	≥ 5.30
COc1ccc(-c2cn(CCCN)c3ccc(CN4CCN(Cc5ccccc5Cl)CC4)cc23)c(CN)c1 [C222; HCl]	≥ 5.30	≥ 5.30	≥ 5.30
NC1CCC(n2cc(-c3ccc(OC(F)(F)F)cc3)c3cc(CN4CCN(Cc5ccccc5Cl)CC4)ccc32)CC1 (stereo not drawn) [C212; HCl]	≥ 5.30	≥ 5.30	≥ 5.30
NCC(=O)NCc1ccc(-n2cc(-c3ccc(OC(F)(F)F)cc3)c3cc(CN4CCN(Cc5ccccc5Cl)CC4)ccc32)cn1 [C219; HCl]	≥ 5.30	≥ 5.30	≥ 5.30
COc1cc(CN2CCN(Cc3ccc4c(c3)c(-c3ccc(OC(F)(F)F)cc3CN)cn4C3CCNCC3)CC2)cc(OC)c1 [C275; HCl]	≥ 5.30	≥ 5.30	≥ 5.30
NCc1cc(-n2cc(-c3ccc(OC(F)(F)F)cc3)c3cc(CN4CCN(Cc5ccccc5Cl)CC4)ccc32)ccn1 [C229; Formic Acid]	≥ 5.30	≥ 5.30	≥ 5.30
COc1cccc(CCCCN(C)Cc2ccc3c(c2)c(-c2ccc(OC(F)(F)F)cc2CN)cn3CCCN)c1 [C298; HCl]	≥ 5.30	5.00 to 5.30	≥ 5.30
NCCCn1nc(-c2ccc(OC(F)(F)F)cc2)c2cc(CN3CCN(Cc4ccccc4Cl)CC3)ccc21 [C178; HCl]	≥ 5.30	≥ 5.30	≥ 5.30
COc1ccc(-c2cn(CCCN)c3ccc(CN4CCN(Cc5ccccc5Cl)CC4)cc23)c(CNS(C)(=O)=O)c1 [C287; HCl]	≥ 5.30	≥ 5.30	≥ 5.30
NCCCn1cc(-c2ccc(OC(F)(F)F)cc2)c2cc(CN3CCS(=O)(=O)CC3)ccc21 [C292; Formic Acid]	5.00 to 5.30	≥ 5.30	≥ 5.30
FC(F)(F)Oc1ccc(-c2cn(C3CCNCC3)c3ccc(CN4CCC(Cc5ccccc5Cl)CC4)cc23)cc1 [C225; HCl]	≥ 5.30	≥ 5.30	≥ 5.30
NCCCn1cc(-c2ccc(OC(F)(F)F)cc2CN)c2cc(CN3CCC(O)CC3)ccc21 [C290; HCl]	5.00 to 5.30	5.00 to 5.30	5.00 to 5.30
NCCCn1cc(-c2ccc(OC(F)(F)F)cc2N)c2cc(CN3CCN(Cc4ccccc4Cl)CC3)ccc21 [C239; Formic Acid]	≥ 5.30	≥ 5.30	≥ 5.30
NCCCn1cc(-c2cc[nH]n2)c2cc(CN3CCN(Cc4ccccc4Cl)CC3)ccc21 [C190; HCl]	5.00 to 5.30	5.00 to 5.30	5.00 to 5.30
COc1cc(CN2CCN(S(=O)(=O)c3ccc4c(c3)c(-c3ccc(OC(F)(F)F)cc3CN)cn4CCCN)CC2)cc(OC)c1 [C240; Formic Acid]	≥ 5.30	≥ 5.30	≥ 5.30
NCCCn1cc(-c2ccc(OC(F)(F)F)cc2CN)c2cc(S(=O)(=O)N3CCN(Cc4ccccc4Cl)CC3)ccc21 [C245; Formic Acid]	≥ 5.30	≥ 5.30	≥ 5.30
NCCCn1cc(-c2ccc(OC(F)(F)F)cc2CN)c2cc(CN3CCC4(CC3)CCN(Cc3ccccc3Cl)C4)ccc21 [C249; Formic Acid]	≥ 5.30	≥ 5.30	≥ 5.30
NCCCn1cc(-c2ccc(OC(F)(F)F)cc2)c2cc(OC3CCN(Cc4ccccc4Cl)CC3)ccc21 [C242; HCl]	5.00 to 5.30	5.00 to 5.30	5.00 to 5.30
COc1cccc(C(C)(C)N2CCN(Cc3ccc4c(c3)c(-c3ccc(OC(F)(F)F)cc3CN)cn4CCCN)CC2)c1 [C283; HCl]	≥ 5.30	≥ 5.30	≥ 5.30
NCCCn1cc(-c2ccc(OC(F)(F)F)cc2)c2cc(CN3CCSCC3)ccc21 [C293; HCl]	≥ 5.30	≥ 5.30	≥ 5.30
NCCCn1nc2ccc(CN3CCN(Cc4ccccc4Cl)CC3)cc2c1-c1ccc(OC(F)(F)F)cc1 [C182; HCl]	≥ 5.30	≥ 5.30	≥ 5.30

Now from value to compound, other results behind:

pEC50 [1]	pEC50 [3]	Structure (SMILES)	pEC50 [2]
≥ 5.30	≥ 5.30	NCCCn1cc(-c2ccc(OC(F)(F)F)cc2CN)c2cc(CN3CCC(CC(F)(F)F)CC3)ccc21 [C252; HCl]	≥ 5.30
≥ 5.30	≥ 5.30	CC(C)(N)CCCn1cc(-c2ccc(OC(F)(F)F)cc2CN)c2cc(CN3CCN(Cc4ccccc4Cl)CC3)ccc21 [C251; HCl]	≥ 5.30
≥ 5.30	≥ 5.30	Cc1cc(Cl)ccc1CN1CCN(Cc2ccc3c(c2)c(-c2ccc(OC(F)(F)F)cc2)cn3CCCN)CC1 [C139; HCl]	≥ 5.30
5.00 to 5.30	5.00 to 5.30	COc1ncc(-c2cn(CCCN)c3ccc(CN4CCN(Cc5ccccc5Cl)CC4)cc23)cn1 [C143; HCl]	5.00 to 5.30
5.00 to 5.30	5.00 to 5.30	NCCCn1cc(-c2ccc(OC(F)(F)F)cc2)c2cc(CN3CCC(NCC(F)(F)F)CC3)ccc21 [C233; HCl]	≥ 5.30
≥ 5.30	5.00 to 5.30	Cn1ccc(-c2cn(CCCN)c3ccc(CN4CCN(Cc5ccccc5Cl)CC4)cc23)n1 [C189; HCl]	5.00 to 5.30
≥ 5.30	≥ 5.30	NCC(=O)N1CCC(n2cc(-c3ccc(OC(F)(F)F)cc3)c3cc(CN4CCN(Cc5ccccc5Cl)CC4)ccc32)CC1 [C203; HCl]	≥ 5.30
≥ 5.30	≥ 5.30	NCCCn1cc(-c2ccccc2CO)c2cc(CN3CCN(Cc4ccccc4Cl)CC3)ccc21 [C181; HCl]	≥ 5.30
≥ 5.30	≥ 5.30	NCCCn1cc(-c2ccc(OC(F)(F)F)cc2CN)c2cc(CN3CCSCC3)ccc21 [C282; HCl]	≥ 5.30
5.00 to 5.30	5.00 to 5.30	Cn1cc(-c2cn(CCCN)c3ccc(CN4CCN(Cc5ccccc5Cl)CC4)cc23)cn1 [C191; HCl]	5.00 to 5.30
≥ 5.30	≥ 5.30	COc1cccc(CN2CCC(Cc3ccc4c(c3)c(-c3ccc(OC(F)(F)F)cc3CN)cn4CCCN)CC2)c1 [C291; HCl]	≥ 5.30
≥ 5.30	≥ 5.30	Cc1cccnc1CN1CCN(Cc2ccc3c(c2)c(-c2ccc(OC(F)(F)F)cc2)cn3CCCN)CC1 [C145; HCl]	≥ 5.30
5.00 to 5.30	5.00 to 5.30	NCCCn1cc(-c2ccc(OC(F)(F)F)cc2CN)c2cc(CN3CCCC(N)C3)ccc21 (stereo not drawn) [C259; HCl]	5.00 to 5.30
≥ 5.30	≥ 5.30	NC1CCC(n2cc(-c3ccc(OC(F)(F)F)cc3)c3cc(CN4CCN(Cc5ccccc5Cl)CC4)ccc32)C1 (stereo not drawn) [C134; HCl]	≥ 5.30
≥ 5.30	≥ 5.30	CCC1CCN(S(=O)(=O)c2ccc3c(c2)c(-c2ccc(OC)cc2CN)cn3CCCN)CC1 [C270; HCl]	≥ 5.30
5.00 to 5.30	5.00 to 5.30	NCCCn1cc(-c2ccc(OC(F)(F)F)cc2CN)c2cc(CN3CCCC(NCC(F)(F)F)C3)ccc21 (stereo not drawn) [C276; HCl]	≥ 5.30
≥ 5.30	≥ 5.30	COc1cccc(CN2CCN(Cc3ccc4c(c3)c(-c3ccc(OC(F)(F)F)cc3CN)cn4C3CCNCC3)CC2)c1 [C274; HCl]	≥ 5.30
≥ 5.30	≥ 5.30	NCCCn1cc(-c2ccc(OC(F)(F)F)cc2)c2cc(CN3CCC(Oc4ccc(Cl)cc4)CC3)ccc21 [C216; HCl]	≥ 5.30
≥ 5.30	≥ 5.30	COc1cc(NC2CCN(Cc3ccc4c(c3)c(-c3ccc(OC(F)(F)F)cc3CN)cn4CCCN)CC2)cc(OC)c1 [C278; HCl]	≥ 5.30
≥ 5.30	≥ 5.30	FC(F)(F)Oc1ccc(-c2cn(C3CCNCC3)c3ccc(CN4CCN(Cc5ccccc5Cl)CC4)cc23)cc1 [C170; HCl]	≥ 5.30
